According to US10759783B2, “Biaryl inhibitors of Bruton'S tyrosine kinase” (BIOGEN MA INC., priority 2013, dated 2020):

biological target: T1, BTK enzyme (Homo sapiens, UniProt Q06187); test: In vitro BTK kinase assay: BTK-POLYGAT-LS assay; type: biochemical; conditions: ATP 10 μM, read-out: IC50 (10uMATP)
T1 construct: purchased Upstate 14-552
Method: The purpose of the BTK in vitro assay is to determine compound potency against BTK through the measurement of IC50. […] For a typical assay, a 24 μL aliquot of a ATP/peptide master mix (final concentration; ATP 10 μM, polyGAT 100 nM) in kinase buffer (10 mM Tris-HCl pH 7.5, 10 mM MgCl2, 200 μM Na3PO4, 5 mM DTT, 0.01% Triton X-100, and 0.2 mg/ml casein) is added to each well. […] The assay is incubated for 30 minutes before being stopped with 28 μL of a 50 mM EDTA solution. […] The plate is covered and incubated for 45 minutes at room temperature.

T1 sequence (Q06187 whole entry): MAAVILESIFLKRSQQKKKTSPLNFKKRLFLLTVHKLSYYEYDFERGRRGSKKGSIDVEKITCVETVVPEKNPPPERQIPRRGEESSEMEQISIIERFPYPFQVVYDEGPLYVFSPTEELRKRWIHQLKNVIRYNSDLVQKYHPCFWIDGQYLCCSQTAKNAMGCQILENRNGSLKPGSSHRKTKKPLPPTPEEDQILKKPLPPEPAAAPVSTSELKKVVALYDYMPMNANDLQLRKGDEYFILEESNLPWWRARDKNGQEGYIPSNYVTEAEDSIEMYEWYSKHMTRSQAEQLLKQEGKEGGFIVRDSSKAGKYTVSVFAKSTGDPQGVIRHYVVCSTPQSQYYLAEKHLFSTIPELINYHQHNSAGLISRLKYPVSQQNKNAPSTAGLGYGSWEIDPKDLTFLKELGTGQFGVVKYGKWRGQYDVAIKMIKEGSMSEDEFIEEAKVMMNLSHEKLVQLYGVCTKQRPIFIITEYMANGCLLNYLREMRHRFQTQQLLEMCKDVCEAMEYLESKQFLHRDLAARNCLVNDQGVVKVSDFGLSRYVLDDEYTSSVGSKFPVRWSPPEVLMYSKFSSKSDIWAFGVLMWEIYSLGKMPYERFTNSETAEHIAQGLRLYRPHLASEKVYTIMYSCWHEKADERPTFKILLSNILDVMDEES

SMILES	IC50 [nM]
Cc1cc(-c2ccnc(N)n2)ccc1CNC(=O)[C@@H]1CC[C@@H]2CNCCN2C1 [Example I-79, (7R,9aR)—N-(4-(2-aminopyrimidin-4-yl)-2-methylbenzyl)octahydro-1H-pyrido[1,2-a]pyrazine-7-carboxamide]	1000 to 10000
Cc1cc(-c2ccnc(N)n2)ccc1CNC(=O)c1cnn(C)c1 [Example I-80, N-(4-(2-aminopyrimidin-4-yl)-2-methylbenzyl)-1-methyl-1H-pyrazole-4-carboxamide]	1000 to 10000
Cc1cc(-c2ccnc(N)n2)ccc1CNC(=O)C1CC2CNCC2C1 (centres unmarked) [Example I-81, N-(4-(2-aminopyrimidin-4-yl)-2-methylbenzyl)octahydrocyclopenta[c]pyrrole-5-carboxamide]	1000 to 10000
Cc1cc(-c2ccnc(N)n2)ccc1CNC(=O)c1cc2c(s1)CNCC2 [Example I-82, N-(4-(2-aminopyrimidin-4-yl)-2-methylbenzyl)-4,5,6,7-tetrahydrothieno[2,3-c]pyridine-2-carboxamide]	100 to 999
Cc1cc(-c2ccnc(N)n2)ccc1CNC(=O)c1cnc(C(F)(F)F)s1 [Example I-83, N-(4-(2-aminopyrimidin-4-yl)-2-methylbenzyl)-2-(trifluoromethyl)thiazole-5-carboxamide]	100 to 999
Cc1cc(-c2ccnc(N)n2)ccc1CNC(=O)c1cncs1 [Example I-84, N-(4-(2-aminopyrimidin-4-yl)-2-methylbenzyl)thiazole-5-carboxamide]	1000 to 10000
Cc1cc(-c2ccnc(N)n2)ccc1CNC(=O)c1cnc(C2CC2)s1 [Example I-85, N-(4-(2-aminopyrimidin-4-yl)-2-methylbenzyl)-2-cyclopropylthiazole-5-carboxamide]	10 to 99
Cc1cc(-c2ccnc(N)n2)ccc1CNC(=O)c1cnc(C(C)C)s1 [Example I-86, N-(4-(2-aminopyrimidin-4-yl)-2-methylbenzyl)-2-isopropylthiazole-5-carboxamide]	10 to 99
COC(C)c1ncc(C(=O)NCc2ccc(-c3ccnc(N)n3)cc2C)s1 (centres unmarked) [Example I-87, N-(4-(2-aminopyrimidin-4-yl)-2-methylbenzyl)-2-(1-methoxyethyl)thiazole-5-carboxamide]	100 to 999
Cc1cc(-c2ccnc(N)n2)ccc1CNC(=O)c1cnc(C2CCCO2)s1 (centres unmarked) [Example I-88, N-(4-(2-aminopyrimidin-4-yl)-2-methylbenzyl)-2-(tetrahydrofuran-2-yl)thiazole-5-carboxamide]	100 to 999
Cn1cc(Nc2nccc(-c3ccc4c(c3)CCC4NC(=O)c3cnc(C(C)(C)C)s3)n2)cn1 (centres unmarked) [Example I-90, 2-(tert-butyl)-N-(5-(2-((1-methyl-1H-pyrazol-4-yl)amino)pyrimidin-4-yl)-2,3-dihydro-1H-inden-1-yl)thiazole-5-carboxamide]	10 to 99
Cn1cc(Nc2cc(-c3ccc4c(c3)CCCC4NC(=O)c3cnc(C(C)(C)C)s3)ncn2)cn1 (centres unmarked) [Example I-92, 2-(tert-butyl)-N-(6-(6-((1-methyl-1H-pyrazol-4-yl)amino)pyrimidin-4-yl)-1,2,3,4-tetrahydronaphthalen-1-yl)thiazole-5-carboxamide]	10 to 99
CC(C)(C)c1ncc(C(=O)NC2CCCc3cc(-c4cc(Nc5cn[nH]c5)ncn4)ccc32)s1 (centres unmarked) [Example I-93, N-(6-(6-((1H-pyrazol-4-yl)amino)pyrimidin-4-yl)-1,2,3,4-tetrahydronaphthalen-1-yl)-2-(tert-butyl)thiazole-5-carboxamide]	10 to 99
Cn1cc(Nc2cc(-c3ccc4c(c3)CCCC4NC(=O)c3cc4c(s3)CCOC4)ncn2)cn1 (centres unmarked) [Example I-94, N-(6-(6-((1-methyl-1H-pyrazol-4-yl)amino)pyrimidin-4-yl)-1,2,3,4-tetrahydronaphthalen-1-yl)-6,7-dihydro-4H-thieno[3,2-c]pyran-2-carboxamide]	100 to 999
CN1CCN(c2ccc(Nc3nccc(-c4ccc5c(c4)CCCC5NC(=O)c4cnc(C(C)(C)C)s4)n3)nc2)CC1 (centres unmarked) [Example I-96, 2-(tert-butyl)-N-(6-(2-((5-(4-methylpiperazin-1-yl)pyridin-2-yl)amino)pyrimidin-4-yl)-1,2,3,4-tetrahydronaphthalen-1-yl)thiazole-5-carboxamide]	10 to 99
Cn1cc(Nc2nccc(-c3ccc4c(c3)OCCC4NC(=O)c3cnc(C(C)(C)C)s3)n2)cn1 (centres unmarked) [Example I-97, 2-(tert-butyl)-N-(7-(2-((1-methyl-1H-pyrazol-4-yl)amino)pyrimidin-4-yl)chroman-4-yl)thiazole-5-carboxamide]	< 10
Cn1cc(Nc2nccc(-c3ccc4c(c3)COCC4NC(=O)c3cnc(C(C)(C)C)s3)n2)cn1 (centres unmarked) [Example I-98, 2-(tert-butyl)-N-(7-(2-((1-methyl-1H-pyrazol-4-yl)amino)pyrimidin-4-yl)isochroman-4-yl)thiazole-5-carboxamide]	10 to 99
Cc1cc(-c2ccnc(Nc3cnn(C)c3)n2)cnc1CNC(=O)c1cnc(C(C)(C)C)s1 [Example I-100, 2-(tert-butyl)-N-((3-methyl-5-(2-((1-methyl-1H-pyrazol-4-yl)amino)pyrimidin-4-yl)pyridin-2-yl)methyl)thiazole-5-carboxamide]	10 to 99
Cc1cc(-c2ccnc(Nc3cnn(C)c3)n2)cnc1CNC(=O)c1cc2c(s1)CCOC2 [Example I-101, N-((3-methyl-5-(2-((1-methyl-1H-pyrazol-4-yl)amino)pyrimidin-4-yl)pyridin-2-yl)methyl)-6,7-dihydro-4H-thieno[3,2-c]pyran-2-carboxamide]	10 to 99
Cc1nc(-c2ccnc(Nc3cnn(C)c3)c2)ccc1CNC(=O)c1cnc(C(C)(C)C)s1 [Example I-102, 2-(tert-butyl)-N-((6-methyl-2′-((1-methyl-1H-pyrazol-4-yl)amino)-[2,4′-bipyridin]-5-yl)methyl)thiazole-5-carboxamide]	10 to 99

More lines, now with the values ahead:

IC50 [nM]	SMILES
10 to 99	Cc1nc(-c2ccnc(Nc3cnn(C)c3)n2)ccc1CNC(=O)c1cnc(C(C)(C)C)s1 [Example I-103, 2-(tert-butyl)-N-((2-methyl-6-(2-((1-methyl-1H-pyrazol-4-yl)amino)pyrimidin-4-yl)pyridin-3-yl)methyl)thiazole-5-carboxamide]
100 to 999	Cc1nc(-c2ccnc(Nc3cnn(C)c3)n2)ccc1CNC(=O)c1cc2c(s1)CCOC2 [Example I-104, N-((2-methyl-6-(2-((1-methyl-1H-pyrazol-4-yl)amino)pyrimidin-4-yl)pyridin-3-yl)methyl)-6,7-dihydro-4H-thieno[3,2-c]pyran-2-carboxamide]
10 to 99	Cc1cc(-c2ccnc(Nc3cnn(C)c3)n2)ccc1C(C)NC(=O)c1cc2c(s1)CCOC2 (centres unmarked) [Example I-105, N-(1-(2-methyl-4-(2-((1-methyl-1H-pyrazol-4-yl)amino)pyrimidin-4-yl)phenyl)ethyl)-6,7-dihydro-4H-thieno[3,2-c]pyran-2-carboxamide]
< 10	Cc1cc(-c2ccnc(Nc3cnn(C)c3)n2)ccc1C(C)NC(=O)c1cnc(C(C)(C)C)s1 (centres unmarked) [Example I-106, 2-(tert-butyl)-N-(1-(2-methyl-4-(2-((1-methyl-1H-pyrazol-4-yl)amino)pyrimidin-4-yl)phenyl)ethyl)thiazole-5-carboxamide]
1000 to 10000	Cc1cc(-c2ccnc(N)n2)ccc1C(C)NC(=O)c1cnc(C(F)(F)F)s1 (centres unmarked) [Example I-107, N-(1-(4-(2-aminopyrimidin-4-yl)-2-methylphenyl)ethyl)-2-(trifluoromethyl)thiazole-5-carboxamide]
10 to 99	Cc1cc(-c2ccnc(Nc3cnn(C)c3)n2)ccc1C(CO)NC(=O)c1cc2c(s1)CCOC2 (centres unmarked) [Example I-109, N-(2-hydroxy-1-(2-methyl-4-(2-((1-methyl-1H-pyrazol-4-yl)amino)pyrimidin-4-yl)phenyl)ethyl)-6,7-dihydro-4H-thieno[3,2-c]pyran-2-carboxamide]
10 to 99	Cc1cc(-c2nc(N)ncc2F)ccc1CNC(=O)c1cnc(C(C)(C)C)s1 [Example I-110, N-(4-(2-amino-5-fluoropyrimidin-4-yl)-2-methylbenzyl)-2-(tert-butyl)thiazole-5-carboxamide]
< 10	Cc1cc(-c2nc(Nc3cnn(C)c3)ncc2C)ccc1CNC(=O)c1cnc(C(C)(C)C)s1 [Example I-112, 2-(tert-butyl)-N-(2-methyl-4-(5-methyl-2-((1-methyl-1H-pyrazol-4-yl)amino)pyrimidin-4-yl)benzyl)thiazole-5-carboxamide]
100 to 999	Nc1nccc(-c2cnc(CNC(=O)c3cc4c(s3)CCCC4)c(F)c2)n1 [Example I-113, N-((5-(2-aminopyrimidin-4-yl)-3-fluoropyridin-2-yl)methyl)-4,5,6,7-tetrahydrobenzo[b]thiophene-2-carboxamide]
100 to 999	Cc1cc(-c2cnnc(Nc3cnn(C)c3)c2)ccc1CNC(=O)c1cnc(C(C)(C)C)s1 [Example I-114, 2-(tert-butyl)-N-(2-methyl-4-(6-((1-methyl-1H-pyrazol-4-yl)amino)pyridazin-4-yl)benzyl)thiazole-5-carboxamide]
10 to 99	Cn1cc(Nc2nccc(-c3ccc(CNC(=O)c4cc5c(s4)CCOC5)c(F)c3)n2)cn1 [Example I-117, N-(2-fluoro-4-(2-((1-methyl-1H-pyrazol-4-yl)amino)pyrimidin-4-yl)benzyl)-6,7-dihydro-4H-thieno[3,2-c]pyran-2-carboxamide]
100 to 999	Cc1cc(-c2ccnc(Nc3ccc(N4CCN(C)CC4)cn3)n2)ccc1CNC(=O)c1cc2c(s1)CCNC2 [Example I-119, N-(2-methyl-4-(2-((5-(4-methylpiperazin-1-yl)pyridin-2-yl)amino)pyrimidin-4-yl)benzyl)-4,5,6,7-tetrahydrothieno[3,2-c]pyridine-2-carboxamide]
